Values after ≈ are worked out from the molar mass of the structure shown. *1 amine or outer side, *2 acyl side, *3 side chain or, on linkers, in order; H or OH if unused. Where a SMILES comes first, the peptide text is derived from it. [ ]: non-standard residue; d: D form. The star is where a group is joined. AMC = Cc1cc(=O)oc2cc(N*)ccc12; Suc = O=C(CCC(=O)[*:2])[*:1]; Nva = CCC[C@H](N)C(=O)O; Cbz = O=C(OCc1ccccc1)*
Assays:
[1] = test system: Rhizoctonia solani (RHIZSO); assay: agar diffusion assay (fungicidal action, MIC); type: cell-based
[2] = test system: Botrytis cinerea (BOTRCI); assay: agar diffusion assay (fungicidal action, MIC); type: cell-based
[3] = test system: Pseudocercosporella herpotrichoides (PSDCHW); assay: agar diffusion assay (fungicidal action, MIC); type: cell-based; details: PSDCHR
Ustilago maydis (USTIMA) = assay: agar diffusion assay (fungicidal action, MIC); type: cell-based
[4] = test system: Pyricularia orycae (PYRIOR); assay: microbe, parasite or virus in culture; type: cell-based
[5] = test system: Fusarium culmorum (FUSACU); assay: agar diffusion assay (fungicidal action, MIC); type: cell-based
S. cerevisiae = details: 30° C., Lee and Goldberg (1998); cited from earlier work
20S proteasome [6] = assay: 20S proteasome activity/inhibition assay with Suc-LLVY-AMC (AMC fluorescence); type: biochemical, yeast; Ustilago maydis; details: 40 nM MG-132, FIGS. 1 and 2
Protocol: FIG. 1 is an activity assay for the 20S proteasome from yeast. The substrate used for the chymotryptic activity was Suc-LLVY-AMC (SEQ. ID. NO. 1). Liberation of AMC was determined fluorometrically as a function of time. The proteasome activity was determined in a 1:100 dilution of a yeast extract in the presence of 40 nM MG132 and in the absence of MG-132. As a negative control, the reaction was carried out without enzyme (buffer).
FIG. 2 is an activity assay for the 20S proteasome from Ustilago maydis. The substrate used for the chymotryptic activity was Suc-LLVY-AMC (SEQ. ID. NO. 1). Liberation of AMC was determined fluorometrically as a function of time. The proteasome activity was determined in a 1:100 and 1:20 dilution of a U. maydis preparation. […]
The proteolytic activity measurable in this way can be influenced by an inhibitor such as, for example, MG-132, resulting in a lower relative fluorescence being observed (FIGS. 1 and 2). […]
The activity and inhibition assay which makes use of the known inhibitor MG-132 from Calbiochem and which is intended to check the usability of the method of the invention was carried out in 384-well MTPs (microtitre plates with 384 wells). […] The preliminary measurement (fluorescence) was carried out at 360/465 nm (35 nm bandwidth). […] The fluorescence was measured again at 360/465 nm (35 nm bandwidth).

[7] = cited from earlier work
20S proteasome [8] = details: read-out: KM for Suc-LLVY-AMC; approx. 70 ng proteasomes per reaction, Lineweaver-Burke
Protocol: A constant amount of proteasomes (approx. 70 ng per reaction) was incubated with increasing amounts of substrate and the increase in fluorescence was then determined over a period of 5 minutes. The slopes of the curve (dotted line) were determined by calculating trend lines.

Molecule: CCC[C@@H](C=O)NC(=O)[C@H](CC(C)C)NC(=O)[C@H](CC(C)C)NC(=O)OCc1ccccc1 [Example 1, Carbobenzoxy-L-leucyl-L-leucyl-L-norvalinal] (Cbz-Leu-Leu-[Nva]-aldehyde)
- MIC ([1]; Rhizoctonia solani, read-out: MIC (minimum inhibitory concentration)): > 1000 µg/mL
- MIC ([2]; Botrytis cinerea, read-out: MIC (minimum inhibitory concentration)): 58.6 µg/mL (≈ 127 µM)
- MIC ([3]; Oculimacula yallundae, read-out: MIC (minimum inhibitory concentration)): > 1000 µg/mL
- MIC (Ustilago maydis (USTIMA); Mycosarcoma maydis, read-out: MIC (minimum inhibitory concentration)): 750 µg/mL (≈ 1620 µM)
- MIC ([4]; Pyricularia, read-out: MIC (minimum inhibitory concentration)): 2 µg/mL (≈ 4.33 µM)
- MIC ([5]; Fusarium culmorum, FUSACU, agar diffusion assay, read-out: MIC (minimum inhibitory concentration)): > 1000 µg/mL

Molecule: CC(C)C[C@@H](C=O)NC(=O)[C@H](CC(C)C)NC(=O)[C@H](CC(C)C)NC(=O)OCc1ccccc1 [MG-132, Z-Leu-Leu-Leu-CHO] (Cbz-Leu-Leu-Leu-aldehyde)
- effect on the growth rate of yeast cells (S. cerevisiae): only a minimum effect, if any
- relative fluorescence (proteasome activity) in presence of inhibitor (20S proteasome [6]): markedly reduces the relative fluorescence

Molecule: Aprotinin [Example 2]
- MIC (minimum inhibitory concentration) [1]: >1000 ppm
- MIC (minimum inhibitory concentration) [2]: 339.3 ppm
- MIC (minimum inhibitory concentration) [3]: >1000 ppm
- MIC (minimum inhibitory concentration) (Ustilago maydis (USTIMA)): 750 ppm
- MIC (minimum inhibitory concentration) ([4]; PYRIOR, agar diffusion assay): 18.0 ppm
- MIC (minimum inhibitory concentration) [5]: >1000 ppm

Molecule: Suc-Leu-Leu-Val-Tyr-AMC (Suc-LLVY-{AMC}; SMILES Cc1cc(=O)oc2cc(NC(=O)[C@H](Cc3ccc(O)cc3)NC(=O)[C@@H](NC(=O)[C@H](CC(C)C)NC(=O)[C@H](CC(C)C)NC(=O)CCC(=O)O)C(C)C)ccc12) [Suc-LLVY-AMC]
- solubility in DMSO [7]: 50 mg/mL
- Km (20S proteasome [8]): 5 µM

— patent publication US7601512B2, “Methods for identifying inhibitors of the 20S and 26S proteasome” (Bayer CropScience AG, priority 2002, dated 2009)
